# Test results reported in patent publication US11946041B2, “Modification of polypeptides” (BicycleRD Limited, priority 2017, dated 2024).
# Experiments:
# CCR4 [1] = target: T1, CCR4 (Homo sapiens, UniProt P51679); test: PathHunter eXpress CCR4 CHO-K1 β-Arrestin GPCR Assay, agonist format; assay type: cell-based
# T1 construct: host or cells: CHO-K1
# T1 sequence (P51679 1-360): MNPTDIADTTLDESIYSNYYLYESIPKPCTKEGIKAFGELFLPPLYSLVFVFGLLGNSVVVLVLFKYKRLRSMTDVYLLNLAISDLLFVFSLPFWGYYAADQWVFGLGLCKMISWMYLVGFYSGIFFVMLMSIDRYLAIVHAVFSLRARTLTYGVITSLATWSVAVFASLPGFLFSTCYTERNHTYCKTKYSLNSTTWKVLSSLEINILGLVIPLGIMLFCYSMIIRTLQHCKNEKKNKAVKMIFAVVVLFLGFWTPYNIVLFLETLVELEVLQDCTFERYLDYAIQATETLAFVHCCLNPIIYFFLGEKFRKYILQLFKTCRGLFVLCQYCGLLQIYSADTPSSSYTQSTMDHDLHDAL
# Experimental: (§1) The aim of the present experiment was to analyze if if these peptides are functional using a Discoverx Assay, the Beta-Arrestin recruitment assay, to identify agonism or antagonism in the selected peptides.
# (§2) Standard protocols used: • PathHunter® eXpress CCR4 CHO-K1 β-Arrestin GPCR Assay. 100 dp (1×96-well)
# (§3) The experiment was carried using the manufacturer instructions.
# The concentration was increased to test for response at high concentration.
# CCR4 [2] = target: T1, CCR4; test: PathHunter eXpress CCR4 CHO-K1 β-Arrestin GPCR Assay, antagonist format with CCL22; assay type: cell-based; settings: for IC80: 10 nM CCL22
# Experimental: as §1, §2, §3
# We therefore used the assay in an antagonist format, using 10 nM CCL22.
# We repeated this experiment lowering the concentration of CCL22 from 10 nM to 1 nM to show a full inhibition curve.
sequence,measurement,setting,value
"ACRAVHSLRCLTTCA [24-17-00-N001, bicyclic peptide ligand, TATA scaffold, from CCR4 cell-based selection]",Raw Data,CCR4 [1]; 0.006 nM,27836
same,Raw Data,CCR4 [1]; 0.02 nM,26107
same,Raw Data,CCR4 [1]; 0.06 nM,29865
same,Raw Data,CCR4 [1]; 0.17 nM,29746
same,Raw Data,CCR4 [1]; 0.51 nM,27025
same,Raw Data,CCR4 [1]; 1.5 nM,27917
same,Raw Data,CCR4 [1]; 4.6 nM,25017
same,Raw Data,CCR4 [1]; 13.9 nM,23972
same,Raw Data,CCR4 [1]; 41.7 nM,23928
same,Raw Data,CCR4 [1]; 125 nM,23999
same,Raw Data,CCR4 [1]; 375 nM,22611
same,Raw Data,"CCR4 [1]; high concentration, 0.001 uM",11608
same,Raw Data,"CCR4 [1]; high concentration, 0.003 uM",11809
same,Raw Data,"CCR4 [1]; high concentration, 0.008 uM",13248
same,Raw Data,"CCR4 [1]; high concentration, 0.023 uM",13984
same,Raw Data,"CCR4 [1]; high concentration, 0.1 uM",14856
same,Raw Data,"CCR4 [1]; high concentration, 0.2 uM",15518
same,Raw Data,"CCR4 [1]; high concentration, 0.6 uM",15965
same,Raw Data,"CCR4 [1]; high concentration, 1.9 uM",17244
same,Raw Data,"CCR4 [1]; high concentration, 5.6 uM",17261
same,Raw Data,"CCR4 [1]; high concentration, 16.7 uM",16709
same,Raw Data,"CCR4 [1]; high concentration, 50 uM",16749
same,Raw Data,"CCR4 [2]; 1 nM CCL22, 0.001 uM",272073
same,Raw Data,"CCR4 [2]; 1 nM CCL22, 0.003 uM",292052
same,Raw Data,"CCR4 [2]; 1 nM CCL22, 0.008 uM",301675
same,Raw Data,"CCR4 [2]; 1 nM CCL22, 0.023 uM",285103
same,Raw Data,"CCR4 [2]; 1 nM CCL22, 0.1 uM",296795
same,Raw Data,"CCR4 [2]; 1 nM CCL22, 0.2 uM",246983
same,Raw Data,"CCR4 [2]; 1 nM CCL22, 0.6 uM",252179
same,Raw Data,"CCR4 [2]; 1 nM CCL22, 1.9 uM",240952
same,Raw Data,"CCR4 [2]; 1 nM CCL22, 5.6 uM",197381
same,Raw Data,"CCR4 [2]; 1 nM CCL22, 16.7 uM",125610
same,Raw Data,"CCR4 [2]; 1 nM CCL22, 50 uM",114156
same,Raw Data,"CCR4 [2]; 10 nM CCL22, 0.001 uM",164018
same,Raw Data,"CCR4 [2]; 10 nM CCL22, 0.003 uM",174559
same,Raw Data,"CCR4 [2]; 10 nM CCL22, 0.008 uM",143078
same,Raw Data,"CCR4 [2]; 10 nM CCL22, 0.023 uM",164921
same,Raw Data,"CCR4 [2]; 10 nM CCL22, 0.1 uM",153182
same,Raw Data,"CCR4 [2]; 10 nM CCL22, 0.2 uM",151630
same,Raw Data,"CCR4 [2]; 10 nM CCL22, 0.6 uM",146982
same,Raw Data,"CCR4 [2]; 10 nM CCL22, 1.9 uM",132070
same,Raw Data,"CCR4 [2]; 10 nM CCL22, 5.6 uM",148721
same,Raw Data,"CCR4 [2]; 10 nM CCL22, 16.7 uM",140316
same,Raw Data,"CCR4 [2]; 10 nM CCL22, 50 uM",153988
"ACQLTCLPPPRQPGCA [24-15-00-N001, bicyclic peptide ligand, TATA scaffold, from CCR4 cell-based selection]",Raw Data,CCR4 [1]; 0.006 nM,28566
same,Raw Data,CCR4 [1]; 0.02 nM,27298
same,Raw Data,CCR4 [1]; 0.06 nM,26888
same,Raw Data,CCR4 [1]; 0.17 nM,28025
same,Raw Data,CCR4 [1]; 0.51 nM,31189
same,Raw Data,CCR4 [1]; 1.5 nM,30670
same,Raw Data,CCR4 [1]; 4.6 nM,27635
same,Raw Data,CCR4 [1]; 13.9 nM,25509
same,Raw Data,CCR4 [1]; 41.7 nM,24463
same,Raw Data,CCR4 [1]; 125 nM,22916
same,Raw Data,CCR4 [1]; 375 nM,24222
same,Raw Data,"CCR4 [1]; high concentration, 0.001 uM",10900
same,Raw Data,"CCR4 [1]; high concentration, 0.003 uM",11501
same,Raw Data,"CCR4 [1]; high concentration, 0.008 uM",12079
same,Raw Data,"CCR4 [1]; high concentration, 0.023 uM",12121
same,Raw Data,"CCR4 [1]; high concentration, 0.1 uM",13265
same,Raw Data,"CCR4 [1]; high concentration, 0.2 uM",13225
same,Raw Data,"CCR4 [1]; high concentration, 0.6 uM",13586
same,Raw Data,"CCR4 [1]; high concentration, 1.9 uM",13457
same,Raw Data,"CCR4 [1]; high concentration, 5.6 uM",13067
same,Raw Data,"CCR4 [1]; high concentration, 16.7 uM",13469
same,Raw Data,"CCR4 [1]; high concentration, 50 uM",10917
same,range of antagonism activity,CCR4 [2],micromolar range
same,antagonist for CCR4,CCR4 [2]; 1 nM CCL22,antagonist
same,Raw Data,"CCR4 [2]; 1 nM CCL22, 0.001 uM",244512
same,Raw Data,"CCR4 [2]; 1 nM CCL22, 0.003 uM",269008
same,Raw Data,"CCR4 [2]; 1 nM CCL22, 0.008 uM",278839
same,Raw Data,"CCR4 [2]; 1 nM CCL22, 0.023 uM",265078
same,Raw Data,"CCR4 [2]; 1 nM CCL22, 0.1 uM",267763
same,Raw Data,"CCR4 [2]; 1 nM CCL22, 0.2 uM",233858
same,Raw Data,"CCR4 [2]; 1 nM CCL22, 0.6 uM",230668
same,Raw Data,"CCR4 [2]; 1 nM CCL22, 1.9 uM",210573
same,Raw Data,"CCR4 [2]; 1 nM CCL22, 5.6 uM",168855
same,Raw Data,"CCR4 [2]; 1 nM CCL22, 16.7 uM",47343
same,Raw Data,"CCR4 [2]; 1 nM CCL22, 50 uM",37690
same,IC80,CCR4 [2],14 µM
same,Raw Data,"CCR4 [2]; 10 nM CCL22, 0.001 uM",166495
same,Raw Data,"CCR4 [2]; 10 nM CCL22, 0.003 uM",152456
same,Raw Data,"CCR4 [2]; 10 nM CCL22, 0.008 uM",159966
same,Raw Data,"CCR4 [2]; 10 nM CCL22, 0.023 uM",163145
same,Raw Data,"CCR4 [2]; 10 nM CCL22, 0.1 uM",162443
same,Raw Data,"CCR4 [2]; 10 nM CCL22, 0.2 uM",160790
same,Raw Data,"CCR4 [2]; 10 nM CCL22, 0.6 uM",164042
same,Raw Data,"CCR4 [2]; 10 nM CCL22, 1.9 uM",149995
same,Raw Data,"CCR4 [2]; 10 nM CCL22, 5.6 uM",119202
same,Raw Data,"CCR4 [2]; 10 nM CCL22, 16.7 uM",94688
same,Raw Data,"CCR4 [2]; 10 nM CCL22, 50 uM",55746
"ACLNGCRNTNSQCA [24-11-00-N001, bicyclic peptide ligand, TATA scaffold, from CCR4 cell-based selection]",Raw Data,CCR4 [1]; 0.006 nM,24609
same,Raw Data,CCR4 [1]; 0.02 nM,24123
same,Raw Data,CCR4 [1]; 0.06 nM,27885
same,Raw Data,CCR4 [1]; 0.17 nM,25757
same,Raw Data,CCR4 [1]; 0.51 nM,27976
same,Raw Data,CCR4 [1]; 1.5 nM,27602
same,Raw Data,CCR4 [1]; 4.6 nM,26096
same,Raw Data,CCR4 [1]; 13.9 nM,22941
same,Raw Data,CCR4 [1]; 41.7 nM,22581
same,Raw Data,CCR4 [1]; 125 nM,22195
same,Raw Data,CCR4 [1]; 375 nM,19528
same,Raw Data,"CCR4 [1]; high concentration, 0.001 uM",9494
same,Raw Data,"CCR4 [1]; high concentration, 0.003 uM",10549
same,Raw Data,"CCR4 [1]; high concentration, 0.008 uM",10183
same,Raw Data,"CCR4 [1]; high concentration, 0.023 uM",11338
same,Raw Data,"CCR4 [1]; high concentration, 0.1 uM",11394
same,Raw Data,"CCR4 [1]; high concentration, 0.2 uM",12202
same,Raw Data,"CCR4 [1]; high concentration, 0.6 uM",11009
same,Raw Data,"CCR4 [1]; high concentration, 1.9 uM",11006
same,Raw Data,"CCR4 [1]; high concentration, 5.6 uM",10444
same,Raw Data,"CCR4 [1]; high concentration, 16.7 uM",10968
same,Raw Data,"CCR4 [1]; high concentration, 50 uM",9993
same,Raw Data,"CCR4 [2]; 1 nM CCL22, 0.001 uM",139740
same,Raw Data,"CCR4 [2]; 1 nM CCL22, 0.003 uM",146107
same,Raw Data,"CCR4 [2]; 1 nM CCL22, 0.008 uM",158208
same,Raw Data,"CCR4 [2]; 1 nM CCL22, 0.023 uM",155622
same,Raw Data,"CCR4 [2]; 1 nM CCL22, 0.1 uM",132431
same,Raw Data,"CCR4 [2]; 1 nM CCL22, 0.2 uM",136037
same,Raw Data,"CCR4 [2]; 1 nM CCL22, 0.6 uM",141369
same,Raw Data,"CCR4 [2]; 1 nM CCL22, 1.9 uM",129872
same,Raw Data,"CCR4 [2]; 1 nM CCL22, 5.6 uM",110179
same,Raw Data,"CCR4 [2]; 1 nM CCL22, 16.7 uM",106271
same,Raw Data,"CCR4 [2]; 1 nM CCL22, 50 uM",85131
same,IC80,CCR4 [2],9.29 µM
same,Raw Data,"CCR4 [2]; 10 nM CCL22, 0.001 uM",164482
same,Raw Data,"CCR4 [2]; 10 nM CCL22, 0.003 uM",157449
same,Raw Data,"CCR4 [2]; 10 nM CCL22, 0.008 uM",146640
same,Raw Data,"CCR4 [2]; 10 nM CCL22, 0.023 uM",154833
same,Raw Data,"CCR4 [2]; 10 nM CCL22, 0.1 uM",154951
same,Raw Data,"CCR4 [2]; 10 nM CCL22, 0.2 uM",151383
same,Raw Data,"CCR4 [2]; 10 nM CCL22, 0.6 uM",163219
same,Raw Data,"CCR4 [2]; 10 nM CCL22, 1.9 uM",153353
same,Raw Data,"CCR4 [2]; 10 nM CCL22, 5.6 uM",145586
same,Raw Data,"CCR4 [2]; 10 nM CCL22, 16.7 uM",127180
same,Raw Data,"CCR4 [2]; 10 nM CCL22, 50 uM",119853
